Measured values published in patent publication US9353116B2, “Methods and compositions for kinase inhibition” (THE REGENTS OF THE UNIVERSITY OF CALIFORNIA, priority 2010, dated 2016).
Read-outs that look alike come from different tables or passages of the source.

Columns and labels:
Type in all cases: biochemical
WT c-Src [1] = target: T1, WT c-Src (Gallus gallus (Chicken), UniProt P00523); experiment: In vitro kinase assay, WT c-Src
Protocol: (§1) In vitro kinase assays for c-Src variants were performed in 50 mM Tris (pH 8.0), 10 mM MgCl2 and 1 mg/mL BSA. When obtaining kinetic parameters (kcat, Km) kinase and peptide substrate (IYGEFKKK) (SEQ ID NO:51) concentrations were 2 nM and 500 μM, respectively, while ATP concentrations ranged from 2000-0.655 μM. Addition of nonradioactive ATP supplemented with ^32P ATP (3,000 Ci/mmol, NEN) was used to initiate kinase reactions. Time points were selected such that product formation never exceeded 10%. Reactions were quenched by spotting 3 μL quantities onto phosphocellulose sheets (P81, Whatman). Afterwards, the sheets were washed 3×5 minutes in 0.5% phosphoric acid and dried. Radioactivity was measured by phosphorimaging and recorded on a Typhoon fluorescence imager (Molecular Dynamics). Data were plotted as rate (min^−1) versus ATP concentration and fitted to the Michaelis-Menten equation, v=[(kcat)[S]]/(Km+[S]), using Kaleidagraph software (Synergy) to extract kinetic parameters. When obtaining IC50 values for the inhibitors, 2% (v/v) DMSO was included in kinase reactions. In these cases ATP, peptide, and enzyme concentrations were 15 nM, 100 μM and 5 nM, respectively, while inhibitor concentrations ranged from 10,000-0.610 nM. In all cases, a ten-minute preincubation step between the kinase and the inhibitor preceded addition of ATP and a fifteen-minute reaction. The data was fitted to a sigmoidal dose-response curve using Prism 4.0c (GraphPad Software) to obtain IC50 values.

T338C c-Src [2] = target: T2, T338C c-Src (Gallus gallus (Chicken), UniProt P00523, T338C); experiment: In vitro kinase assay, T338C c-Src (c-Src-ES1); conditions: for fold increase in inhibition of T338C relative to WT c-Src: T338C vs WT c-Src; for fold drop in potency against T338C c-Src relative to compound 9: relative to isopropyl vinylsulfonamide 9
Protocol: as §1, with “In all cases, a ten-minute preincubation step between the kinase and the inhibitor preceded addition of ATP and a fifteen-minute reaction.” left out

c-Src-ES2 (T338C/V323A) = c-Src-ES2 (T338C/V323A) (Gallus gallus (Chicken), UniProt P00523, T338C/V323A); experiment: In vitro kinase assay, c-Src-ES2
Protocol: as §1

c-Src-ES3 (T338C/V323S) = c-Src-ES3 (T338C/V323S) (Gallus gallus (Chicken), UniProt P00523, T338C/V323S); experiment: In vitro kinase assay, c-Src-ES3; conditions: ES3 = T338C/V323S; read-out: c-Src variant IC50 (nM) ES3
Protocol: as §1

T338C c-Src [3] = target: T2, T338C c-Src; experiment: Gel filtration and kinetic assay, T338C c-Src; conditions: 23 μM inhibitor, 25 minutes, then PD10 desalting
Protocol: (§2) Inhibitors (final concentration 23 μM) were incubated with c-Src variants (final concentration 11.5 μM) in kinase reaction buffer (50 mM Tris pH 8, 100 mM NaCl, 1 mM DTT, 5% glycerol, 5% DMSO) for 25 minutes at room temperature. The solutions (2.6 mL total) were then passed over PD10 desalting columns (GE Healthcare) using the kinase reaction buffer for elution. Src concentrations were calculated using the extinction coefficient for c-Src (51.140 mM^−1cm^−1) {Seeliger, 2005 #100}. Kinase assays were performed as described in the experimental section at a final enzyme concentration of 10 nM.

WT c-Src [4] = target: T1, WT c-Src; experiment: Gel filtration and kinetic assay, WT c-Src; conditions: 23 μM inhibitor, 25 minutes, then PD10 desalting
Protocol: as §2

307 kinases = experiment: Kinome-wide profiling (SelectScreen Kinase Profiling Service); conditions: compounds at 1 μM, ATP at Km,app
Protocol: The percent inhibition results in FIG. were generated with biochemical enzymatic kinase assays using the SelectScreen® Kinase Profiling Service (Life Technologies Corporation, Madison, Wis.). Compounds were assayed at 1 μM at an ATP concentration equal to the ATP Km,app for the assay following the detailed procedures described in the SelectScreen® Customer Protocol and Assay Conditions documents located at www.invitrogen.com/kinaseprofiling.
Compounds that were profiled include, but are not limited to, 3, 4, 9, 13, and 20. […] The exocyclic amine mimics N6 of ATP and plays an important role in a hydrogen bonding interaction with the hinge region of kinases.

[5] = inhibitor preincubated with Src ten minutes prior to addition of ATP, read-out: WT c-Src IC50
[6] = inhibitor preincubated with Src ten minutes prior to addition of ATP, read-out: T338C c-Src IC50
[7] = 10 min preincubation with inhibitor prior to addition of ATP, read-out: IC50 against WT c-Src
[8] = 10 min preincubation with inhibitor prior to addition of ATP, read-out: IC50 against T338C c-Src

Compound: C=CS(=O)(=O)Nc1cccc(-c2nn(C(C)C)c3ncnc(N)c23)c1 [Compound 3, N-(3-(4-amino-1-isopropyl-1H-pyrazolo[3,4-d]pyrimidin-3-yl)phenyl)ethenesulfonamide]
- IC50 (WT c-Src [1]; [5]): 1000 nM
- IC50 (T338C c-Src [2]; ES1 = T338C, read-out: c-Src variant IC50 (nM) ES1): 111 nM
- fold increase in inhibition of T338C relative to WT c-Src (T338C c-Src [2]): > 9 fold
- IC50 (T338C c-Src [2]; [6]): 111 nM
- IC50 (c-Src-ES2 (T338C/V323A); ES2 = T338C/V323A, read-out: c-Src variant IC50 (nM) ES2): 63 nM
- change of inhibitor potency upon second-site Val323 mutations (c-Src-ES2 (T338C/V323A); c-Src-ES2 and c-Src-ES3 relative to c-Src-ES1): not modulated appreciably
- IC50 (c-Src-ES3 (T338C/V323S)): 131 nM

Compound: C=CS(=O)(=O)Nc1cccc(Cc2nn(C3CCCC3)c3ncnc(N)c23)c1 [Compound 17, N-(3-((4-amino-1-cyclopentyl-1H-pyrazolo[3,4-d]pyrimidin-3-yl)methyl)phenyl)ethenesulfonamide]
- IC50 (WT c-Src [1]; [5]): > 5000 nM
- IC50 (T338C c-Src [2]; [6]): 196 nM

Compound: CC(C)n1nc(Cc2cccc(NC(=O)CCl)c2)c2c(N)ncnc21 [Compound 12, N-(3-((4-amino-1-isopropyl-1H-pyrazolo[3,4-d]pyrimidin-3-yl)methyl)phenyl)-2-chloroacetamide]
- IC50 (WT c-Src [1]; [5]): > 5000 nM
- IC50 (T338C c-Src [2]; [6]): > 5000 nM

Compound: C=CC(=O)Nc1cccc(-c2nn(C(C)C)c3ncncc23)c1 [Compound 2, N-(3-(1-isopropyl-1H-pyrazolo[3,4-d]pyrimidin-3-yl)phenyl)acrylamide]
- IC50 (WT c-Src [1]; [7]): ≥ 5000 nM
- IC50 (WT c-Src [1]; [5]): > 5000 nM
- IC50 (T338C c-Src [2]; [8]): ≥ 5000 nM
- IC50 (T338C c-Src [2]; [6]): > 5000 nM

Compound: C=CS(=O)(=O)Nc1cccc(Cc2nn(C)c3ncnc(N)c23)c1 [Compound 15, N-(3-((4-amino-1-methyl-1H-pyrazolo[3,4-d]pyrimidin-3-yl)methyl)phenyl)ethenesulfonamide]
- IC50 (WT c-Src [1]; [5]): > 5000 nM
- IC50 (T338C c-Src [2]; [6]): 3160 nM
- fold drop in potency against T338C c-Src relative to compound 9 (T338C c-Src [2]): 21 fold

Compound: C=CC(=O)Nc1ccc(Cc2nn(C(C)C)c3ncnc(N)c23)cc1 [Compound 8, N-(4-((4-amino-1-isopropyl-1H-pyrazolo[3,4-d]pyrimidin-3-yl)methyl)phenyl)acrylamide]
- IC50 (WT c-Src [1]; [5]): > 5000 nM
- IC50 (T338C c-Src [2]; [6]): > 5000 nM

Compound: C=CC(=O)Nc1cccc(Nc2ncnc3cc(OC)c(OC)cc23)c1 [Compound 18, N-(3-(6,7-dimethoxyquinazolin-4-ylamino)phenyl)acrylamide]
- IC50 (WT c-Src [1]; [5]): > 5000 nM
- IC50 (T338C c-Src [2]; [6]): 1660 nM

Compound: C=CS(=O)(=O)Nc1ccc(Cc2nn(C(C)C)c3ncnc(N)c23)cc1 [Compound 10, N-(4-((4-amino-1-isopropyl-1H-pyrazolo[3,4-d]pyrimidin-3-yl)methyl)phenyl)ethenesulfonamide]
- IC50 (WT c-Src [1]; [5]): 3080 nM
- IC50 (T338C c-Src [2]; [6]): 1760 nM

Compound: C=CC(=O)Nc1cccc(-c2nn(C(C)C)c3ncnc(N)c23)c1 [Compound 1, N-(3-(4-amino-1-isopropyl-1H-pyrazolo[3,4-d]pyrimidin-3-yl)phenyl)acrylamide]
- IC50 (WT c-Src [1]; [5]): 2320 nM
- IC50 (T338C c-Src [2]; [6]): 419 nM

Compound: CCS(=O)(=O)Nc1cccc(Cc2nn(C(C)C)c3ncnc(N)c23)c1 [Compound 11, N-(3-((4-amino-1-isopropyl-1H-pyrazolo[3,4-d]pyrimidin-3-yl)methyl)phenyl)ethanesulfonamide]
- IC50 (WT c-Src [1]; [5]): > 5000 nM
- IC50 (T338C c-Src [2]; [6]): 3500 nM
- fold drop in potency against T338C c-Src relative to compound 9 (T338C c-Src [2]): 23 fold

Compound: C=CS(=O)(=O)Nc1ccc(-c2nn(C(C)C)c3ncnc(N)c23)cc1 [Compound 5, N-(4-(4-amino-1-isopropyl-1H-pyrazolo[3,4-d]pyrimidin-3-yl)phenyl)ethenesulfonamide]
- IC50 (WT c-Src [1]; [5]): 899 nM
- fold increase in inhibition of T338C relative to WT c-Src (T338C c-Src [2]): ~6 fold
- IC50 (T338C c-Src [2]; [6]): 145 nM

Compound: Cc1ccc(-c2nn(C(C)(C)C)c3ncnc(N)c23)cc1 [PP1, reference compound]
- inhibitory activity after gel filtration, T338C c-Src (T338C c-Src [3]): abrogated
- inhibitory activity after gel filtration, WT c-Src (WT c-Src [4]): abrogated

Compound: C=CC(=O)Nc1cccc(Cc2nn(C(C)C)c3ncnc(N)c23)c1 [Compound 7, N-(3-((4-amino-1-isopropyl-1H-pyrazolo[3,4-d]pyrimidin-3-yl)methyl)phenyl)acrylamide]
- IC50 (WT c-Src [1]; [5]): > 5000 nM
- IC50 (T338C c-Src [2]; [6]): 2760 nM

Compound: CC(C)n1nc(-c2cccc(NC(=O)CCl)c2)c2c(N)ncnc21 [Compound 6, N-(3-(4-amino-1-isopropyl-1H-pyrazolo[3,4-d]pyrimidin-3-yl)phenyl)-2-chloroacetamide]
- IC50 (WT c-Src [1]; [5]): > 5000 nM
- IC50 (T338C c-Src [2]; [6]): 817 nM

Compound: C=CS(=O)(=O)Nc1cccc(Cc2nn(C(C)(C)C)c3ncnc(N)c23)c1 [Compound 16, N-(3-((4-amino-1-tert-butyl-1H-pyrazolo[3,4-d]pyrimidin-3-yl)methyl)phenyl)ethenesulfonamide]
- IC50 (WT c-Src [1]; [5]): > 5000 nM
- IC50 (T338C c-Src [2]; [6]): 618 nM
- fold drop in potency against T338C c-Src relative to compound 9 (T338C c-Src [2]): 4 fold

Compound: C=CS(=O)(=O)Nc1cccc(-c2nn(C(C)C)c3ncncc23)c1 [Compound 4, N-(3-(1-isopropyl-1H-pyrazolo[3,4-d]pyrimidin-3-yl)phenyl)ethenesulfonamide]
- IC50 (WT c-Src [1]; [7]): ≥ 5000 nM
- IC50 (WT c-Src [1]; [5]): > 5000 nM
- IC50 (T338C c-Src [2]; [8]): ≥ 5000 nM
- IC50 (T338C c-Src [2]; [6]): > 5000 nM
- off-target profile in kinome-wide screen (307 kinases): relatively few off-target effects
